Experimental data: ChEMBL document CHEMBL1137071, “Phenyl thiazolyl urea and carbamate derivatives as new inhibitors of bacterial cell-wall biosynthesis” (Bioorg Med Chem Lett, 2004)
Values after ≈ are worked out from the molar mass of the structure shown.

Assays:
Format in all cases: functional
Enterococcus faecalis [1] = experiment: Antimicrobial activity against Enterococcus faecalis GC 2242 (VRE)
Escherichia coli [2] = experiment: Antimicrobial activity against Escherichia coli GC 4559
Escherichia coli [3] = experiment: Antimicrobial activity against Escherichia coli GC 4560
Enterococcus faecalis [4] = experiment: Antimicrobial activity against Enterococcus faecalis GC 4555 (ATCC)
[5] = Inhibitory activity against MurA from Escherichia coli
[6] = Inhibitory activity against MurB from Escherichia coli
[7] = Inhibitory activity against MurB from Staphylococcus aureus
[8] = Antimicrobial activity against MSCNS (methicillin-susceptible coagulase-negative staphylococci) GC 646; conditions: Staphylococcus
Staphylococcus aureus [9] = experiment: Antimicrobial activity against Staphylococcus aureus GC 1131 (MRSA)
Staphylococcus aureus [10] = experiment: Antimicrobial activity against Staphylococcus aureus GC 2216 (ATCC)
Staphylococcus aureus [11] = experiment: Antimicrobial activity against Staphylococcus aureus GC 4543 (MSSA)
Streptococcus pneumoniae [12] = experiment: Antimicrobial activity against Streptococcus pneumoniae GC1894 (PRSP) in the presence of 4% bovine serum albumin
Streptococcus pneumoniae [13] = experiment: Antimicrobial activity against Streptococcus pneumoniae GC1894 (PRSP)

Row | MIC (Enterococcus faecalis [1]) [µg/mL] | MIC (Escherichia coli [2]) [µg/mL] | MIC (Escherichia coli [3]) [µg/mL] | MIC (Enterococcus faecalis [4]) [µg/mL] | IC50 [5] [µg/mL] | IC50 [6] [µg/mL] | IC50 [7] [µg/mL] | MIC [8] [µg/mL] | MIC (Staphylococcus aureus [9]) [µg/mL] | MIC (Staphylococcus aureus [10]) [µg/mL] | MIC (Staphylococcus aureus [11]) [µg/mL] | MIC (Streptococcus pneumoniae [12]) [µg/mL] | MIC (Streptococcus pneumoniae [13]) [µg/mL] | Compound
1 | 0.5 (≈ 1.52 µM) | > 128 | 2 (≈ 6.09 µM) | 0.5 (≈ 1.52 µM) | > 25 | 6.2 (≈ 18.9 µM) | 6.3 (≈ 19.2 µM) | 0.5 (≈ 1.52 µM) | 0.5 (≈ 1.52 µM) | 0.25 (≈ 0.761 µM) | 0.25 (≈ 0.761 µM) | 128 | < 0.12 | Cc1ccc(NC(=O)Nc2nc(C(C)(C)C)c(C#N)s2)cc1C
2 | > 128 | > 128 | > 128 | > 128 | 25 (≈ 83 µM) | 25 (≈ 83 µM) | 25 (≈ 83 µM) | > 128 | > 128 | > 128 | > 128 | > 128 | > 128 | CC(C)(C)c1nc(NC(=O)Nc2cccnc2)sc1C#N
3 | 8 (≈ 24.6 µM) | > 128 | > 128 | 16 (≈ 49.2 µM) | > 25 | > 25 | > 25 | > 128 | > 128 | > 128 | > 128 | > 128 | 8 (≈ 24.6 µM) | CC(C)(C)c1nc(NC(=O)Nc2cccc(C#N)c2)sc1C#N
4 | 0.5 (≈ 1.3 µM) | > 128 | 2 (≈ 5.22 µM) | 1 (≈ 2.61 µM) | 20.8 (≈ 54.3 µM) | > 25 | 11 (≈ 28.7 µM) | 1 (≈ 2.61 µM) | 1 (≈ 2.61 µM) | 0.25 (≈ 0.652 µM) | 0.5 (≈ 1.3 µM) | 128 | < 0.12 | CC(C)(C)c1nc(NC(=O)NCc2ccc(Cl)c(Cl)c2)sc1C#N
5 | 4 (≈ 13.9 µM) | > 128 | 0.5 (≈ 1.74 µM) | 4 (≈ 13.9 µM) | 20 (≈ 69.4 µM) | > 25 | > 25 | 2 (≈ 6.94 µM) | 2 (≈ 6.94 µM) | 2 (≈ 6.94 µM) | 2 (≈ 6.94 µM) | > 128 | 0.5 (≈ 1.74 µM) | O=C(Nc1ccc(Cl)c(Cl)c1)Nc1nccs1
6 | 0.25 (≈ 0.719 µM) | > 128 | 0.5 (≈ 1.44 µM) | 0.5 (≈ 1.44 µM) | > 25 | > 25 | > 25 | 0.5 (≈ 1.44 µM) | 0.5 (≈ 1.44 µM) | 0.25 (≈ 0.719 µM) | 0.25 (≈ 0.719 µM) | > 128 | < 0.12 | N#Cc1sc(NC(=O)Nc2ccc(Cl)c(Cl)c2)nc1Cl
7 | 0.5 (≈ 1.6 µM) | > 128 | 4 (≈ 12.8 µM) | 1 (≈ 3.19 µM) | 12.6 (≈ 40.2 µM) | 4.5 (≈ 14.4 µM) | 5.6 (≈ 17.9 µM) | 1 (≈ 3.19 µM) | 1 (≈ 3.19 µM) | 0.5 (≈ 1.6 µM) | 0.5 (≈ 1.6 µM) | 128 | < 0.12 | N#Cc1cnc(NC(=O)Nc2ccc(Cl)c(Cl)c2)s1
8 | 64 (≈ 196 µM) | > 128 | > 128 | > 128 | > 25 | > 25 | 24 (≈ 73.4 µM) | > 128 | > 128 | > 128 | > 128 | 128 | 64 (≈ 196 µM) | N#Cc1cnc(NC(=O)NCc2ccc(Cl)c(Cl)c2)s1
9 | < 0.12 | > 128 | 0.5 (≈ 1.35 µM) | 0.25 (≈ 0.677 µM) | 3.3 (≈ 8.94 µM) | 6.2 (≈ 16.8 µM) | 2.8 (≈ 7.58 µM) | < 0.12 | < 0.12 | < 0.12 | < 0.12 | 128 | < 0.12 | CC(C)(C)c1nc(NC(=O)Nc2ccc(Cl)c(Cl)c2)sc1C#N
10 | 2 (≈ 6.39 µM) | > 128 | 8 (≈ 25.5 µM) | 8 (≈ 25.5 µM) | > 25 | > 25 | 14 (≈ 44.7 µM) | 4 (≈ 12.8 µM) | 8 (≈ 25.5 µM) | 4 (≈ 12.8 µM) | 4 (≈ 12.8 µM) | 128 | < 0.12 | N#Cc1csc(NC(=O)Nc2ccc(Cl)c(Cl)c2)n1
